According to patent US20250313588A1, “NOVEL PYRROLOPYRIMIDINONE CARBOXAMIDE COMPOUND FOR INHIBITING CDK, STEREOISOMER THEREOF OR PHARMACEUTICALLY ACCEPTABLE SALT THEREOF, AND PHARMACEUTICAL COMPOSITION FOR TREATING CANCER, COMPRISING SAME AS ACTIVE INGREDIENT” (Seoul National University R&DB Foundation, priority 2022, published 2025):
Each block holds one compound with its values, some of them ahead of it.

How the values were obtained:
[1] = test system: Hep3B cells, hepatocellular carcinoma cell line; experiment: Anticancer efficacy in mouse model transplanted with Hep3B cells; assay type: in vivo, nude mice; settings: Hep3B xenograft; for changes in mouse body weight / weight of the extracted cancer: 20 mg/kg; for changes in mouse body weight / changes in cancer growth: 27 days; for changes in cancer growth: 20 mg/kg oral (SNS-032 intraperitoneal), compared to Y102 and SNS-032 groups; for weight of the extracted cancer: day 27
Source text: (§1) To evaluate in vivo efficacy using Hep3B cells, another hepatocellular carcinoma cell line, 3×10^6 Hep3B cells were transplanted into the right calves of nude mice to form cancer tissue, and then the anticancer efficacy of the new compositions Y106 and Y108 was compared with that of an existing CDK inhibitor Y102 or SNS-032.
The dosage, administration schedule, and administration route were applied in the same manner as in the method performed in the mouse model transplanted with Huh-7 cells in Example 3. After administration of the new compositions and the existing CDK inhibitors, changes in cancer growth and mouse body weight were measured for 27 days, and then on day 27, the cancer tissues were removed to confirm the size and weight thereof.

[2] = test system: Huh-7 cells, hepatocellular carcinoma cell line; experiment: Anticancer efficacy in mouse model transplanted with Huh-7 cells; assay type: in vivo, nude mice; settings: Huh-7 xenograft; for changes in cancer growth: 20 mg/kg oral (SNS-032 intraperitoneal), five times a week for two weeks, compared to Y102 and SNS-032 groups; for weight of the extracted cancer: day 14
Procedure: To evaluate in vivo efficacy, 1×10^7 Huh-7 cells were transplanted into the right calves of nude mice to form cancer tissue, and then the anticancer efficacy of the new compositions Y106 and Y108 was compared with that of an existing CDK inhibitor Y102 or SNS-032.
The dose was the same for all mice (20 mg/kg), the vehicle, Y102, Y106, and Y108 were administered orally, and only SNS-032 was administered intraperitoneally. These were administered five times a week for two weeks, the size was measured twice a week using calipers to measure the changes in cancer growth and the mouse body weight for 14 days, and on day 14, the cancer tissue was removed to confirm the size and weight thereof.

[3] = test system: A549 cells, non-small cell lung cancer cell line; experiment: Anticancer efficacy in mouse model transplanted with A549 cells; assay type: in vivo, nude mice; settings: A549 xenograft; for changes in mouse body weight / weight of the extracted cancer: 20 mg/kg; for changes in mouse body weight / changes in cancer growth: 25 days; for changes in cancer growth: 20 mg/kg oral (SNS-032 intraperitoneal), administered for five days, compared to Y102 and SNS-032 groups; for weight of the extracted cancer: day 25
Procedure: as §1, with “in a mouse model transplanted with A549” for “using Hep3B”, “a non-small cell lung cancer” for “another hepatocellular carcinoma”, “1×10^6 A549” for “3×10^6 Hep3B”
The dose was the same for all mice (20 mg/kg), the vehicle, Y102, Y106, and Y108 were administered orally, and only SNS-032 was administered intraperitoneally. These were administered for five days, the size was measured twice a week using calipers to measure the changes in cancer growth and the mouse body weight for 25 days, and on day 25, the cancer tissue was removed to confirm the size and weight thereof.

Huh-7 cells = experiment: Cell colony forming assay, Huh-7; assay type: cell-based; settings: Huh-7, 1 μM and 3 μM for 12 hours, 7 to 14 days; compared to Y102 or SNS-032
Procedure: (§2) To examine the anticancer efficacy of Y106 and Y108 in vitro, a cell colony formation assay was performed in hepatocellular carcinoma cell lines Huh-7 and Hep3B cells.
(§3) 500 cells were seeded into 6-well plates, and then treated with Y102, Y106,Y108, or SNS-032 at 1 μM and 3 μM for 12 hours, the medium was then replaced with fresh medium, and after 7 to 14 days, the cells were stained with 20% methanol+0.5% Crystal Violet for colony staining, and the number of cells was counted for quantitative analysis.

Hep3B cells = experiment: Cell colony forming assay, Hep3B; assay type: cell-based; settings: 1 μM and 3 μM for 12 hours, 7 to 14 days, compared to Y102 or SNS-032
Procedure: as §2, §3

[4] = Plasma metabolic stability assay (human plasma); settings: for half-life at 5 μM: human, plasma; for plasma stability (in words): summary of Table 1, 'in each group'
Procedure: (§4) DMSO was used as a diluent to prepare stock solutions of a test substance and a positive control at a concentration of 10 mM. The positive control stock solution was then diluted with 70% acetonitrile to a working concentration of 0.2 mM, and then the test substance stock solution was diluted with 70% acetonitrile to a working concentration of 1 mM. A quench reagent consisted of acetonitrile containing tolbutamide and propranolol (provided as an internal standard).
(§5) Positive control and test substance working solutions were spiked into plasma at a concentration of 1 μM and 5 μM, respectively. A 0-min sample was prepared by adding an 80 μL aliquot of each incubation mixture to 320 μL of the quench reagent to precipitate proteins. The mixture was incubated in a water bath at 37° C. with gentle shaking. Aliquots of 80 μL of each mixture were removed and placed in a clean 96-well plate containing 320 μL of the quench reagent to precipitate proteins at 15, 30, 45, and 60 min and centrifuged (5000×g, 15 minutes). 100 μL of the supernatant was placed in a 96-well assay plate to which 200 μL of ultrapure water had been added in advance, and analyzed by LC-MS/MS.

[5] = Plasma metabolic stability assay (mouse plasma)
Procedure: as §4, §5

[6] = plasma
Procedure: as §4, §5

[7] = plasma; remark: listed apart in the source
Procedure: as §4, §5

Compound: CC(C)(C)c1cnc(CSc2cnc(NC(=O)C3CCNCC3)s2)o1 [SNS-032, reference compound]
changes in mouse body weight [1]: no significant difference | mouse body weight ([2]; 20 mg/kg, 14 days): slightly reduced | changes in mouse body weight [3]: no significant difference

Compound: CCC(C)(C)C(=O)OC[C@@H]1O[C@H](n2cnc(N)c3c(C(N)=O)c(Br)nc2-3)[C@@H](O)[C@@H]1OC(=O)C(C)(C)CC [Compound Y106, (2S,3S,4S,5S)-5-(4-amino-6-bromo-5-carbamoyl-1H-pyrrolo[2,3-d]pyrimidin-1-yl)-2-(((2,2-dimethylbutanoyl)oxy)methyl)-4-hydroxytetrahydrofuran-3-yl 2,2-dimethylbutanoate]
colony formation (Huh-7 cells): remarkably reduced | changes in cancer growth [1]: inhibited cancer growth more effectively | changes in mouse body weight [1]: no significant difference | weight of the extracted cancer [1]: least amount of cancer tissue | colony formation (Hep3B cells): remarkably reduced | half-life at 5 μM [4]: > 720 min | plasma stability (in words) [4]: highest stability | changes in cancer growth ([2]; 14 days): significantly inhibited cancer growth | weight of the extracted cancer ([2]; 20 mg/kg): least amount of cancer tissue | changes in cancer growth [3]: inhibited cancer growth more clearly | changes in mouse body weight [3]: no significant difference | weight of the extracted cancer [3]: least amount of cancer tissue | half-life at 5 μM [5]: 7.1 ± 0.07 min

Compound: CC(C)C(=O)OC[C@@H]1O[C@H](n2cnc(N)c3c(C(N)=O)c(Br)nc2-3)[C@@H](O)[C@@H]1OC(=O)C(C)C [Compound Y105, (2S,3S,4S,5S)-5-(4-amino-6-bromo-5-carbamoyl-1H-pyrrolo[2,3-d]pyrimidin-1-yl)-4-hydroxy-2-((isobutyryloxy)methyl)tetrahydrofuran-3-yl isobutyrate]
half-life at 5 μM [4]: 20.5 ± 0.34 min | half-life at 5 μM [5]: 2.67 ± 0.2 min

Compound: CC(C)(C)C(=O)OC[C@@H]1O[C@H](n2cnc(N)c3c(C(N)=O)c(Br)nc2-3)[C@@H](O)[C@@H]1OC(=O)C(C)(C)C [Compound Y108, (2S,3S,4S,5S)-5-(4-amino-6-bromo-5-carbamoyl-1H-pyrrolo[2,3-d]pyrimidin-1-yl)-4-hydroxy-2-((pivaloyloxy)methyl)tetrahydrofuran-3-yl pivalate]
colony formation (Huh-7 cells): remarkably reduced | changes in cancer growth [1]: inhibited cancer growth more effectively | changes in mouse body weight [1]: no significant difference | weight of the extracted cancer [1]: least amount of cancer tissue | colony formation (Hep3B cells): remarkably reduced | half-life at 5 μM [4]: 700 ± 42.5 min | plasma stability (in words) [4]: highest stability | changes in cancer growth ([2]; 14 days): significantly inhibited cancer growth | weight of the extracted cancer ([2]; 20 mg/kg): least amount of cancer tissue | changes in cancer growth [3]: inhibited cancer growth more clearly | changes in mouse body weight [3]: no significant difference | weight of the extracted cancer [3]: least amount of cancer tissue | half-life at 5 μM [5]: 7.25 ± 0.01 min

Compound: CCC(C)(C)C(=O)OC[C@@H]1O[C@H](n2cnc(N)c3c(C(N)=O)c(Br)nc2-3)[C@@H](O)[C@@H]1O [Compound Y107, ((2S,3S,4S,5S)-5-(4-amino-6-bromo-5-carbamoyl-1H-pyrrolo[2,3-d]pyrimidin-1-yl)-3,4-dihydroxytetrahydrofuran-2-yl)methyl 2,2-dimethylbutanoate]
half-life at 5 μM [4]: 26.6 ± 4.33 min | half-life at 5 μM [5]: 6.91 ± 0.11 min

More lines, now with the values ahead:

half-life at 5 μM [4]: 280 ± 3.06 min | half-life at 5 μM [5]: 7.77 ± 0.13 min
Compound: NC(=O)c1c(Br)nc2n([C@H]3O[C@@H](COC(=O)C45CC6CC(CC(C6)C4)C5)C(O)[C@H]3O)cnc(N)c1-2 (stereo partly drawn) [Compound Y109, ((2S,3S,4S,5S)-5-(4-amino-6-bromo-5-carbamoyl-1H-pyrrolo[2,3-d]pyrimidin-1-yl)-3,4-dihydroxytetrahydrofuran-2-yl)methyl(3S,5S,7S)-adamantane-1-carboxylate]

half-life at 5 μM [4]: 16.7 ± 0.38 min | half-life at 5 μM [5]: 32.6 ± 4.81 min
Compound: CC1CC(OC(=O)C(O)c2ccccc2)CC(C)(C)N1C (stereo not drawn) [Eucatropin, reference compound]

T1/2(min) Human [6]: 4.57 ± 0.09 min | T1/2(min) Mouse [7]: 2.85 ± 0.02 min
Compound: Ibulocydine
